# pIC50: −log10 of the molar value.
# Assays:
# [1] = target: T1, ERα (Homo sapiens, UniProt P03372); test: ERE luciferase reporter gene assay in T47D-KBluc cells (target engagement); format: cell-based; design: T47D human breast cancer cells stably transfected with estrogen responsive element/promoter/luciferase reporter gene; host or cells: T47D-KBluc cells; conditions: 10% FBS, 24 hours, Table 2 VHL centric PROTACs, read-out: IC50
# T1 sequence (P03372 1-595): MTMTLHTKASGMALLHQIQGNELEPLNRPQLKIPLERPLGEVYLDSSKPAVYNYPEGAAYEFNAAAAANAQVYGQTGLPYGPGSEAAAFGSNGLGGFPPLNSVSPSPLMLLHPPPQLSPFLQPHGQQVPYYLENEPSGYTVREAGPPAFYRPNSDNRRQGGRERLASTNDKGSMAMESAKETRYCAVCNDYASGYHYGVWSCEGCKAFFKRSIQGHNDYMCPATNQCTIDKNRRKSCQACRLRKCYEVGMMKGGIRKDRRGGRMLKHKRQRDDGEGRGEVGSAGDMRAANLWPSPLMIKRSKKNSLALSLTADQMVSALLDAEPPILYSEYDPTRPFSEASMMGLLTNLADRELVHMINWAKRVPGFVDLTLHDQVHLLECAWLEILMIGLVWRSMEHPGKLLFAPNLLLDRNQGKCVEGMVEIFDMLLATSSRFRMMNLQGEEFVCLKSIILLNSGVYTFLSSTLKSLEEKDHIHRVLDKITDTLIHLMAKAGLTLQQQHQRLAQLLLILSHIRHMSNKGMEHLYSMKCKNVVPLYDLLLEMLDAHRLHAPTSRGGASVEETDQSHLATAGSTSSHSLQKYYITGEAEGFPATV
# How it was run: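 PROTACs were tested at 12 concentrations from 300 nM down to 2 pM in 3-fold steps for 24 h on T47D-KBluc cells with a stable ERE-driven luciferase. Medium was RPMI with 10% FBS, measured at 10 pM estrogen. IC50 came from luminescence after lysis, in duplicate.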
# [2] = target: T1, ERα; test: Estrogen receptor-alpha (ERα) degradation assay in MCF-7 cells using western blot; format: cell-based; design: assessed for their activity in degrading ERα in MCF-7 cells via western blot; endogenous in cells; host or cells: MCF7 cells; conditions: ER-alpha degradation, MCF7 cells, 3 days of incubation
# Method: Compounds prepared in this application were also analyzed for the degradation of ERα in MCF7 and T47D cells.
# Estrogen Receptor-Alpha (ERα) Degradation Assay in MCF-7 Cells Using Western Blot Method for Table 4.
# The exemplary novel ERα degraders were assessed for their activity in degrading ERα in MCF-7 cells via western blot. The assay was carried out in the presence of 10% fetal bovine serum (FBS) or high percentage of human or mouse serum.
# MCF7 cells were grown in DMEM/F12 with 10% fetal bovine serum and seeded at 24,000 cells per well in 100 μl into 96-well clear tissue culture plates. The following day, the cells were treated with PROTACs in a […] concentration curve with 100 nM being the top concentration and serial dilutions to make the other concentrations (30 nM, 10 nM, 3 nM, 1 nM, and 0.3 nM). At all concentrations, 0.01% DMSO is the final concentration in the well. The following day, the plates are aspirated, washed with 50 μl of cold PBS. The cells are lysed with 50 μl/well 4° C. Cell Lysis Buffer (Catalog #9803; Cell Signaling Technology, Danvers, Mass.) (20 mM Tris-HCL (pH 7.5), 150 mM NaCl, 1 mM […], 1 mM EGTA, 1% Triton, 2.5 mM sodium pyrophosphate, 1 mM B-glycerophosphate, 1 mM sodium vanadate, 1 ug/ml leupeptin). Lysates were clarified at 16,000×g for 10 minutes, and 2 μg of protein was subjected to SDS-PAGE analysis and followed by immunoblotting according to standard protocols. The antibodies used were ERα (Cell Signaling Technologies Catalog #8644), and Tubulin (Sigma Catalog #T9026; St. Louis, Mo.). Detection reagents were Clarity Western ECL substrate (Bio-Rad Catalog #170-5060; Hercules, Calif.).
# Alternatively, MCF7 cells were grown in DMEM/F12 with 10% fetal bovine serum and seeded at 24,000 cells per well in 500 μl in 24-well clear tissue culture plates. The following day, the cells were treated with PROTACs in a 5-point concentration curve (100 nM, 33 nM, 11 nM, 3.7 nM, and 1.2 nM) in the presence of 0.01% DMSO. After 72 hours, the wells are aspirated and washed with 500 μl of PBS. The cells are lysed with 100 μl/well 4° C. Cell Lysis Buffer (Catalog #9803; Cell Signaling Technology, Danvers, M A) (20 mM Tris-HCL (pH 7.5), 150 mM NaCl, 1 mM Na2EDTA, 1 mM EGTA, 1% Triton, 2.5 mM sodium pyrophosphate, 1 mM B-glycerophosphate, 1 mM sodium vanadate, 1 ug/ml leupeptin). Lysates were clarified at 16,000×g for 10 minutes, and 2 μg of protein was subjected to SDS-PAGE analysis and followed by immunoblotting according to standard protocols. The antibodies used were ER(X (Cell Signaling Technologies Catalog #8644), and Tubulin (Sigma Catalog #T9026; St. Louis, Mo.). Detection reagents were Clarity Western ECL substrate (Bio-Rad Catalog #170-5060; Hercules, Calif.).
Compound,pIC50 [1],DC50 [2] [nM],Dmax [2] [%]
"Cc1ncsc1-c1ccc(CNC(=O)[C@@H]2C[C@@H](O)CN2C(=O)C(c2cc(OCCN3CCN(CCOc4ccc(Oc5c(-c6ccc(Br)cc6)sc6cc(O)ccc56)cc4)CC3)no2)C(C)C)cc1 (stereo in doubt) [Compound 164, (2S,4R)-1-((S)-2-(3-(2-(4-(2-(4-((2-(4-bromophenyl)-6-hydroxybenzo[b]thiophen-3-yl)oxy)phenoxy)ethyl)piperazin-1-yl)ethoxy)isoxazol-5-yl)-3-methylbutanoyl)-4-hydroxy-N-(4-(4-methylthiazol-5-yl)benzyl)pyrrolidine-2-carboxamide]",8.57,1 to 10,50 to 75
"Cc1ncsc1-c1ccc(CNC(=O)[C@@H]2C[C@@H](O)CN2C(=O)[C@@H](NC(=O)COCCOC2CN(CCOc3ccc(Oc4c(-c5ccc(F)cc5)sc5cc(O)ccc45)cc3)C2)C(C)(C)C)cc1 [Compound 117, (2S,4R)-1-((S)-2-(2-(2-(1-(2-(4-(2-(4-fluorophenyl)-6-hydroxybenzo[b]thiophen-3-yloxy)phenoxy)ethyl)azetidin-3-yloxy)ethoxy)acetamido)-3,3-dimethylbutanoyl)-4-hydroxy-N-(4-(4-methylthiazol-5-yl)benzyl)pyrrolidine-2-carboxamide]",8.48,1 to 10,50 to 75
"Cc1ncsc1-c1ccc(CNC(=O)[C@@H]2C[C@@H](O)CN2C(=O)[C@@H](NC(=O)COCCN2CCN(CCOc3ccc(Oc4c(-c5ccc(F)cc5)sc5cc(O)ccc45)cc3)CC2)C(C)(C)C)cc1 [Compound 118, (2S,4R)-1-((S)-2-(2-(2-(4-(2-(4-((2-(4-fluorophenyl)-6-hydroxybenzo[b]thiophen-3-yl)oxy)phenoxy)ethyl)piperazin-1-yl)ethoxy)acetamido)-3,3-dimethylbutanoyl)-4-hydroxy-N-(4-(4-methylthiazol-5-yl)benzyl)pyrrolidine-2-carboxamide]",9.40,< 1,> 75
"Cc1ncsc1-c1ccc(CNC(=O)[C@@H]2C[C@@H](O)CN2C(=O)[C@@H](NC(=O)Cc2ccc(-c3ccn(CCOc4ccc(Oc5c(-c6ccc(F)cc6)sc6cc(O)ccc56)cc4)n3)cc2)C(C)(C)C)cc1 [Compound 121, (2S,4R)-1-[(2S)-2-[2-(4-[1-[2-(4-[[2-(4-fluorophenyl)-6-hydroxy-1-benzothiophen-3-yl]oxy]phenoxy)ethyl]-1H-pyrazol-3-yl]phenyl)acetamido]-3,3-dimethylbutanoyl]-4-hydroxy-N-[[4-(4-methyl-1,3-thiazol-5-yl)phenyl]methyl]pyrrolidine-2-carboxamide]",9.00,1 to 10,> 75
"Cc1ncoc1-c1ccc([C@H](C)NC(=O)[C@@H]2C[C@@H](O)CN2C(=O)[C@@H](NC(=O)COCCOCCOCCOc2ccc(Oc3c(-c4ccc(Br)cc4)sc4cc(O)ccc34)cc2)C(C)(C)C)cc1 [Compound 127, (2S,4R)-1-((S)-14-(4-(2-(4-bromophenyl)-6-hydroxybenzo[b]thiophen-3-yloxy)phenoxy)-2-tert-butyl-4-oxo-6,9,12-trioxa-3-azatetradecane)-4-hydroxy-N-((S)-1-(4-(4-methyloxazol-5-yl)phenyl)ethyl)pyrrolidine-2-carboxamide]",9.70,< 1,> 75
C[C@H](NC(=O)[C@@H]1C[C@@H](O)CN1C(=O)[C@@H](NC(=O)COCCOCCN(C)CCOc1ccc(Oc2c(-c3ccc(F)cc3)sc3cc(O)ccc23)cc1)C(C)(C)C)c1ccc(Cl)cc1 [Compound 129],8.85,1 to 10,> 75

# Further lines, results first:
pIC50 [1],DC50 [2] [nM],Dmax [2] [%],Compound
9.22,< 1,> 75,"Cc1ncsc1-c1ccc([C@H](C)NC(=O)[C@@H]2C[C@@H](O)CN2C(=O)[C@@H](NC(=O)COCCOCCOCCOc2ccc(Oc3c(-c4ccc(F)cc4)sc4cc(O)ccc34)cc2)C(C)(C)C)cc1 [Compound 111, (2S,4R)-1-((S)-2-tert-butyl-14-(4-(2-(4-fluorophenyl)-6-hydroxybenzo[b]thiophen-3-yloxy)phenoxy)-4-oxo-6,9,12-trioxa-3-azatetradecane)-4-hydroxy-N—((S)-1-(4-(4-methylthiazol-5-yl)phenyl)ethyl)pyrrolidine-2-carboxamide]"
8.96,1 to 10,> 75,"Cc1ncsc1-c1ccc([C@H](C)NC(=O)[C@@H]2C[C@@H](O)CN2C(=O)[C@@H](NC(=O)COCCOCCOCCOc2ccc(Oc3c(-c4ccc(Cl)cc4)sc4cc(O)ccc34)cc2)C(C)(C)C)cc1 [Compound 119, (2S,4R)-1-((S)-2-tert-butyl-14-(4-(2-(4-chlorophenyl)-6-hydroxybenzo[b]thiophen-3-yloxy)phenoxy)-4-oxo-6,9,12-trioxa-3-azatetradecane)-4-hydroxy-N-((S)-1-(4-(4-methylthiazol-5-yl)phenyl)ethyl)pyrrolidine-2-carboxamide]"
9.70,< 1,> 75,"Cc1ncsc1-c1ccc([C@H](C)NC(=O)[C@@H]2C[C@@H](O)CN2C(=O)[C@@H](NC(=O)COCCOCCOCCOc2ccc(Oc3c(-c4ccc(Br)cc4)sc4cc(O)ccc34)cc2)C(C)(C)C)cc1 [Compound 126, (2S,4R)-1-((S)-14-(4-(2-(4-bromophenyl)-6-hydroxybenzo[b]thiophen-3-yloxy)phenoxy)-2-tert-butyl-4-oxo-6,9,12-trioxa-3-azatetradecane)-4-hydroxy-N-((S)-1-(4-(4-methylthiazol-5-yl)phenyl)ethyl)pyrrolidine-2-carboxamide]"
9.52,< 1,> 75,"Cc1ncsc1-c1ccc([C@H](C)NC(=O)[C@@H]2C[C@@H](O)CN2C(=O)[C@@H](NC(=O)COCCOCCN(C)CCOc2ccc(Oc3c(-c4ccc(F)cc4)sc4cc(O)ccc34)cc2)C(C)(C)C)cc1 [Compound 128, (2S,4R)-1-[(2S)-2-[1-(4[[2-(4-fluorophenyl)-6-hydroxy-1-benzothiophen-3-yl]oxy]phenyl)-4-methyl-1,7,10-trioxa-4-azadodecan-12-amido]-3,3-dimethylbutanoyl]-4-hydroxy-N-[(1S)-1-[4-(4-methyl-1,3-thiazol-5-yl)phenyl]ethyl]pyrrolidine-2-carboxamide]"
